From patent publication US4490388A, “Amidine compound and anticomplement agent comprising same” (Torii & Co., Ltd., priority 1981, dated 1984)
Like-named read-outs stand apart in the source and are kept apart here.

How the values were obtained:
[1] = tested on: complement; assay: Inhibition of complement mediated hemolysis; format: cell-based; conditions: read-out: Inhibition of complement mediated hemolysis (%)
Experimental: The complement mediated hemolysis is widely used as a means to determine the titration of complement. The principle of this method is based on the fact that hemolysis is caused by the activation of complement, when the latter is added to a complex (immune complex) of erythrocytes and the autibody thereof. The degree of hemolysis varies in proportion to the amount of complement added. Therefore, when a known amount of complement admixed with a C1 esterase inhibitor is used, the hemolysis must be suppressed in proportion to the inhibitory activity.
The anti-C1 esterase (C1r, C1s) activity was determined according to the method of Okamura et al. [K. Okamura, M. Muramatsu and B. Fujii, Biochem. Biophys. […] The inhibition of complement mediated hemolysis was determined according to the method of Baker et al. [B. R. Baker and E. H. Erickson, J. Med. Chem., 12, 408-414 (1969)].

[2] = target: Plasmin (Homo sapiens, UniProt P00747); assay: Anti-plasmin activity (hydrolysis of TAME); format: biochemical
Plasmin, sequence (P00747 581-810 limits assumed): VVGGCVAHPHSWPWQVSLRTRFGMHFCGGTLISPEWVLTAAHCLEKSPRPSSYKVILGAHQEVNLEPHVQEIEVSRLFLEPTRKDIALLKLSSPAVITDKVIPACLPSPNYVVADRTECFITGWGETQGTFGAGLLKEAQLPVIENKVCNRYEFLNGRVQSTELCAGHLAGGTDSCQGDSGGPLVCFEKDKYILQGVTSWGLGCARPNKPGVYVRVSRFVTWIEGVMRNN
Plasmin, sequence (P00747 97-580 partner limits assumed): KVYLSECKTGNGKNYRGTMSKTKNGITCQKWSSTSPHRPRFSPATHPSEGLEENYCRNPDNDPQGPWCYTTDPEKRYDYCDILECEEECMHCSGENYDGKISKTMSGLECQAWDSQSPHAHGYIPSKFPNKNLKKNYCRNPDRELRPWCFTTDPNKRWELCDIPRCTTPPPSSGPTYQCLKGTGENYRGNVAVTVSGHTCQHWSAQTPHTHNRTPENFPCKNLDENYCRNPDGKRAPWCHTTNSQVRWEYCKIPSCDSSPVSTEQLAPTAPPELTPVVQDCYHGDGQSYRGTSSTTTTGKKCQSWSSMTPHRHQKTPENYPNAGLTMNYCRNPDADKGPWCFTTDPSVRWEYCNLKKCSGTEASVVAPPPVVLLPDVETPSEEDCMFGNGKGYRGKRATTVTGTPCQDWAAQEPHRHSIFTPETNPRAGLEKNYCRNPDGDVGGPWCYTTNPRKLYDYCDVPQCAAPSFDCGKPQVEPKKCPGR
Experimental: (§1) The anti-trypsin, anti-plasmin, anti-kallikrein and anti-thrombin activities were determined according to the method of Muramatsu et al. [M. Muramatsu, T. Onishi, S. Makino, Y. Hayashi and S. Fujii, J. of Biochem., 58, 214 (1965)]. The data summarized in Table 1 are expressed in terms of molar concentration (id50) of the test compound which inhibits 50% of the activity of each enzyme to hydrolyze TAME (tosylarginine methyl ester). The compound No. corresponds to the compound number shown in Examples.

[3] = target: Thrombin (Bos taurus, UniProt P00735); assay: Anti-thrombin activity (hydrolysis of TAME); format: biochemical
Experimental: as §1

[4] = target: T1, Trypsin (Bos taurus, UniProt P00760); assay: Anti-trypsin activity (hydrolysis of TAME); format: biochemical
T1 sequence (P00760 24-246): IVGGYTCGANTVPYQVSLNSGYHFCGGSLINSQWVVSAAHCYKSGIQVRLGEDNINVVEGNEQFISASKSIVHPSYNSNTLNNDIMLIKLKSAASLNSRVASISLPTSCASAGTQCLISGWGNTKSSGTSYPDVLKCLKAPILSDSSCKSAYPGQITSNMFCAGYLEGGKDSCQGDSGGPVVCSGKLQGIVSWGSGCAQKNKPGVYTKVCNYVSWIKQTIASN
Experimental: as §1

[5] = target: T2, C1r (Homo sapiens, UniProt P00736); assay: Anti-C1 esterase activity, C1r (hydrolysis of AAME); format: biochemical; conditions: for inhibition at 10 µM: at 1×10^-5 M, read-out: Anti-C1 activity, C1r percent inhibition; for IC50: molar concentration inhibiting 50% of AAME hydrolysis, read-out: Anti-C1 activity, C1r id50
T2 sequence (P00736 464-705 limits assumed): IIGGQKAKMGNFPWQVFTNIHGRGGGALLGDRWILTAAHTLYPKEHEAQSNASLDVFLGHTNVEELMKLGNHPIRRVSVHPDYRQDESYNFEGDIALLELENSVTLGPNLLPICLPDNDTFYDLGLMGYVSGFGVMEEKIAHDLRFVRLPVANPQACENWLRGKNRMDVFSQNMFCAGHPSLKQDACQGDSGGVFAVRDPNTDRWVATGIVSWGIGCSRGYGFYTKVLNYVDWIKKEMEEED
T2 sequence (P00736 18-463 partner limits assumed): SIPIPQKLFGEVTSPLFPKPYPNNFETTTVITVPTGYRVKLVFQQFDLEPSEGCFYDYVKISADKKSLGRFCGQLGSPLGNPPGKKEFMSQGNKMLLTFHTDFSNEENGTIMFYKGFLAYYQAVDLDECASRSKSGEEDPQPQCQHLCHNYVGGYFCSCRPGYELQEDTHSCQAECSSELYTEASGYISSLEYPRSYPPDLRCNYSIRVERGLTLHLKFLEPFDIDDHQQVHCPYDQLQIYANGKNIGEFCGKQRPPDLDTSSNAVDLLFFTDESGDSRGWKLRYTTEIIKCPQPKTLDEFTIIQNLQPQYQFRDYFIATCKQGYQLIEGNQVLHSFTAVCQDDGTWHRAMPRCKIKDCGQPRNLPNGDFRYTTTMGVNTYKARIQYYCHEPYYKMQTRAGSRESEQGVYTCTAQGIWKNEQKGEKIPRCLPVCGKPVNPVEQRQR
Experimental: The anti-C1 esterase (C1r, C1s) activity was determined according to the method of Okamura et al. [K. Okamura, M. Muramatsu and B. Fujii, Biochem. Biophys. […] The figures in Table 2 have the following meanings:
C1r: Molar concentration of the test compound which inhibits 50% of the ability of C1r to hydrolyse AAME (acetylarginin methyl ester) (id50).

[6] = molar concentration inhibiting 50% of TAME hydrolysis, read-out: id50, Plasmin
[7] = molar concentration inhibiting 50% of TAME hydrolysis, read-out: id50, Trypsin

Compound | inhibition at 100 µM ([1]; 1 × 10^-4 M) | inhibition at 10 µM ([1]; 1 × 10^-5 M) | inhibition at 1 µM ([1]; 1 × 10^-6 M) | inhibition at 0.1 µM ([1]; 1 × 10^-7 M) | IC50 [2, 6] | IC50 [3] | IC50 [4, 7] | inhibition at 10 µM [5] | inhibition at 1 µM [1] | inhibition at 100 µM [1] | IC50 [5] | inhibition at 0.1 µM [1] | inhibition at 10 µM [1] | IC50 [2] | IC50 [4]
N=C(N)C=Cc1ccc(OC(=O)[C@H]2CC[C@H](CN)CC2)cc1 [Compound 10, 4-(β-amidinoethenyl)phenyl trans-4-aminomethylcyclohexanecarboxylate] | 100% | 99% | 98% | 74% | 6 µM | > 10 µM | 6 µM | 46% |  |  |  |  |  |  | 
N=C(N)C=Cc1ccc(OC(=O)CCc2ccccc2)cc1 [Compound 15] |  | 10% |  | 0% | > 10 µM | > 10 µM | 2 µM | 10% | 2% | 80% |  |  |  |  | 
CC(C)(C)c1ccc(C(=O)Oc2ccc(C=CC(=N)N)cc2)cc1 [Compound 22] | 88% | 76% | 25% | 11% | 3 µM | 3 µM | 5 µM |  |  |  | 5 µM |  |  |  | 
N=C(N)C=Cc1ccc(OC(=O)Cc2ccccc2)cc1 [Compound 13, 4-(β-amidinoethenyl)phenyl phenylacetate] |  |  |  |  |  | 5 µM |  | 21% | 6% | 99% |  | 0% | 31% | 10 µM | 1 µM
CN(C)c1ccc(C(=O)Oc2ccc(C=CC(=N)N)cc2)cc1 [Compound 32] | 73% | 80% | 50% | 32% | > 10 µM | > 10 µM | 1 µM |  |  |  | 10 µM |  |  |  | 
Cc1ccc(C(=O)Oc2ccc(C=CC(=N)N)cc2)cc1 [Compound 20] | 97% | 75% | 38% | 17% | 4 µM | > 10 µM | 0.03 µM |  |  |  | 1 µM |  |  |  | 
CCC(=Cc1ccc(NC(=N)N)cc1)C(=O)Oc1ccc(C=CC(=N)N)cc1 [Compound 36] | 93% |  | 8% | 0% | > 10 µM | 5 µM | 5 µM |  |  |  |  |  | 40% |  | 
N=C(N)C=Cc1ccc(OC(=O)CCCCCNC(=N)N)cc1 [Compound 9, 4-(β-amidinoethenyl)phenyl 6-guanidinocaproate] | 97% | 72% |  | 0% | > 10 µM | > 10 µM | 0.03 µM | 28% | 6% |  |  |  |  |  | 
N=C(N)C=Cc1ccc(OC(=O)[C@H]2CC[C@H](CNC(=O)OCc3ccccc3)CC2)cc1 [Compound 11, 4-(β-amidinoethenyl)phenyl trans-4-benzyloxycarbonylaminomethylcyclohexanecarboxylate] |  | 99% | 82% |  | 0.3 µM | > 10 µM | 5 µM |  |  | 95% | 5 µM | 25% |  |  | 
N=C(N)C=Cc1ccc(OC(=O)c2ccc(C=O)cc2)cc1 [Compound 30] | 99% | 94% | 62% |  | 0.6 µM | 0.6 µM | 4 µM |  |  |  | 1 µM | 45% |  |  | 
N=C(N)C=Cc1ccc(OC(=O)CCCCCN)cc1 [Compound 8, 4-(β-amidinoethenyl)phenyl 6-aminohexanoate] | 27% |  | 9% | 0% | > 10 µM | > 10 µM | 2 µM |  |  |  | > 10 µM |  | 15% |  | 
CCCCCCC(=O)Oc1ccc(C=CC(=N)N)cc1 [Compound 3] |  | 75% |  | 0% | > 10 µM | > 10 µM | > 10 µM | 28% |  | 98% |  |  |  |  | 
N=C(N)C=Cc1ccc(OC(=O)c2ccc(Cl)cc2)cc1 [Compound 39] | 100% | 99% | 89% | 71% | 4 µM | 2 µM | 2 µM |  |  |  | 0.5 µM |  |  |  | 
N=C(N)C=Cc1ccc(OC(=O)CCCc2ccc([N+](=O)[O-])cc2)cc1 [Compound 38] | 98% | 76% | 27% | 7% |  |  |  |  |  |  |  |  |  |  | 
Cc1ccccc1C(=O)Oc1ccc(C=CC(=N)N)cc1 [Compound 18] | 91% | 38% | 12% | 0% |  |  |  |  |  |  |  |  |  |  | 
CC(=O)Oc1ccc(C=CC(=N)N)cc1 [Compound 1, 4-(β-amidinoethenyl)phenyl acetate] |  | 71% | 64% |  |  |  |  |  |  | 99% |  | 10% |  |  | 
CC=CC=CC(=O)Oc1ccc(C=CC(=N)N)cc1 [Compound 4] |  | 99% |  |  | 0.9 µM |  | 0.4 µM |  | 86% | 100% | 5 µM | 12% |  |  | 
N=C(N)C=Cc1ccc(OC(=O)C2CC2)cc1 [Compound 5, 4-(β-amidinoethenyl)phenyl cyclopropanecarboxylate] | 100% | 100% | 81% | 16% | 2 µM |  | 6 µM |  |  |  | 2 µM |  |  |  | 
